Results on 18 compounds are retold here after patent publication US12134620B2 (ARAXES PHARMA LLC, priority 2018, dated 2024).

The assay deals with T1, KRAS G12C 1-169, his-tagged protein, GDP-loaded (Homo sapiens, UniProt P01116, G12C).
T1 construct: KRAS G12C 1-169, his-tagged protein, GDP-loaded; His tag
The assay can be described thus: Biochemical assay: covalent modification of KRAS G12C, analysed by mass spectrometry (RapidFire/TOF or Q-Exactive). Format: binding. As to conditions: Modification activity, modification percentage from MS peak intensities. Here is the method:
Test compounds are prepared as 10 mM stock solutions in DMSO (Fisher cat. #BP-231-100). KRAS G12C 1-169, his-tagged protein, GDP-loaded is diluted to 2 μM or 0.5 μM in buffer (20 mM Hepes, 150 mM NaCl, 1 mM MgCl2). Compounds are tested for activity as follows:
Compounds are diluted to 50× final test concentration in DMSO in 96-well storage plates. Compound stock solutions are vortexed before use and observed carefully for any sign of precipitation. Dilutions are as follow: • For 32 μM final compound concentration, compounds are diluted to 1600 μM (3 μL 10 mM compound stock+15.75 μL DMSO and mixed well by pipetting. • For 8 μM final compound concentration, compounds are diluted to 400 μM (2 μL 10 mM compound stock+48 μL DMSO) and mixed well by pipetting. 49 μL of the stock protein solution is added to each well of a 96-well PCR plate (Fisher cat #1423027). 1 μl of the diluted 50× compounds are added to appropriate wells in the PCR plate using 12-channel pipettor. Reactions are mixed carefully and thoroughly by pipetting up/down with a 200 μL multi-channel pipettor. The plate is sealed well with aluminum plate seal, and protein and compound are allowed to react for a desired amount of time. 5 μL of 2% formic acid (Fisher cat #A117) in de-ionized H2O is then added to each well followed by mixing with a pipette to quench the reaction. The plate is then resealed with aluminum seal and stored frozen on dry ice until analyzed as described below.
The above described assays are analyzed by mass spectrometry according to one of the following two procedures:
The MS instrument is set to positive polarity, 2 GHz resolution, and low mass (1700) mode and allowed to equilibrate for 30 minutes. The instrument is then calibrated, switched to acquisition mode and the appropriate method loaded.
After another 30 minute equilibration time, a blank batch (i.e., buffer) is run to ensure equipment is operating properly. The samples are thawed at 37° C. for 10 minutes, briefly centrifuged, and transfer to the bench top. Wells A1 and H12 are spiked with 1 μL 500 μM internal standard peptide, and the plates centrifuged at 2000×g for 5 minutes. The method is then run and masses of each individual well recorded.
The masses (for which integration data is desired) for each well are pasted into the platemap and exported from the analysis. Masses for the internal standards are exported as well. The data at 50 ppm is extracted for the +19 charge state, and identity of well A1 is assigned using the internal standard spike and integrated. Peak data is exported as a TOF list and the above steps are repeated individually, for the +20, +21, +22, +23, +24, and +25 charge states.
The masses and peak intensities of KRAS G12C protein species are measured using a Dionex RSLCnano system (Thermo Scientific) connected to a Q Exactive Plus mass spectrometer (Thermo Scientific).
20 μL of sample is each loaded onto a Aeris™ 3.6 μm WIDEPORE C4 200 Å, LC Column 50×2.1 mm column maintained at 40° C. at a flow rate of 600 μL/min with 80% Solvent A (0.1% formic acid in H2O) and 20% Solvent B (0.1% formic acid in acetonitrile). The liquid chromatography conditions are 20% solvent B for 1 minute, 20% to 60% solvent B for 1.5 minutes, 60% to 90% solvent for 0.5 minute, 90% solvent B for 0.2 minute, 90% to 20% solvent B for 0.2 minute, and then equilibrated for 1.6 minute before the following sample injection. The flow rate is maintained at 600 μL/min throughout the sample analysis.
The mass spectrometer is operated in profile mode at a resolution of 17500, 5 microscans, using 50 msec max injection time and an AGC target of 1×10^6, and a full mass range from 800-1850 m/z is recorded. The intact protein mode is applied for optimal ion transfer and maximum sensitivity. The ionization method is electrospray ionization, which used a spray voltage of 4 kV, sheath gas flow set to 50 AU, auxiliary gas flow set to 10 AU and sweep gas flow set to 1 AU. […]
Take `C=CC(=O)N1CC2(CCN(c3nc(OC[C@@H]4CCCN4C)nc(-n4cnc5ccccc54)c3C#N)C2)C1` [Compound I-38, (S)-4-(2-acryloyl-2,6-diazaspiro[3.4]octan-6-yl)-6-(1H-benzo[d]imidazol-1-yl)-2-((1-mehtylpyrrolidin-2-yl)methoxy)pyrimidine-5-carbonitrile]: the Binding % result is “+ (+ indicates binding activity greater than 0% and up to 50%)”. The entry for `C=CC(=O)N1CC2(CCN(c3nc(N4CC5CN(C)CC5C4)nc(-c4c(C)ccc5[nH]ncc45)c3C#N)C2)C1` (stereo not drawn) [Compound I-39, 4-(2-acryloyl-2,6-diazaspiro[3.4]octan-6-yl)-6-(5-methyl-1H-indazol-4-yl)-2-(5-methylhexahydropyr-rolo[3,4-c]pyrrol-2(1H)-yl)pyrimidine-5-carbonitrile] is “+ (+ indicates binding activity greater than 0% and up to 50%)”; for `C=CC(=O)N1CC2(CCN(c3nc(N4CCC5CCN(C)C5C4)nc(-c4c(C)ccc5[nH]ncc45)c3C#N)C2)C1` (stereo not drawn) [Compound I-40, 4-(2-acryloyl-2,6-diazaspiro[3.4]octan-6-yl)-6-(5-methyl-1H-indazol-4-yl)-2-(1-methyloctahydro-6H-pyrrolo[2,3-c]pyridin-6-yl)pyrimidine-5-carbonitrile] it is “+++ (+++ indicates binding activity greater than 85%)”. In the case of `C=CC(=O)N1CC2(CCN(c3nc(NC(=O)c4ccccn4)nc(-c4c(C)ccc5[nH]ncc45)c3C#N)C2)C1` [Compound I-41, N-(4-(2-acryloyl-2,6-diazaspiro[3.4]octan-6-yl)-5-cyano-6-(5-methyl-1H-indazol-4-yl)pyrimidin-2-yl)picolinamide], the Binding % entry is “+++ (+++ indicates binding activity greater than 85%)”. For `C=CC(=O)N1CC2(CCN(c3nc(OC4CCN(C)CC4)nc(-c4c(C)ccc5[nH]ncc45)c3C#N)C2)C1` [Compound I-43, 4-(2-acryloyl-2,6-diazaspiro[3.4]octan-6-yl)-6-(5-methyl-1H-indazol-4-yl)-2-((1-methylpiperidin-4-yl)oxy)pyrimidine-5-carbonitrile], the Binding % entry is listed as “+++ (+++ indicates binding activity greater than 85%)”. The entry for `C=CC(=O)N1CC2(CCN(c3nc(OC[C@@H]4CCCN4C)nc(Nc4cccc(C(N)=O)c4)c3C#N)C2)C1` [Compound I-44, (S)-3-((6-(2-acryloyl-2,6-diazaspiro[3.4]octan-6-yl)-5-cyano-2-((1-methylpyrrolidin-2-yl)methoxy)pyrimidin-4-yl)amino)benzamide] is “+ (+ indicates binding activity greater than 0% and up to 50%)”.

On to `C=CC(=O)N1CC2(CCN(c3nc(OC[C@@H]4CCCN4C)nc(-c4c(F)cccc4C(N)=O)c3C#N)C2)C1` [Compound I-45, 2-(6-(2-acryloyl-2,6-diazaspiro[3.4]octan-6-yl)-5-cyano-2-(((S)-1-methylpyrrolidin-2-yl)methoxy)pyrimidin-4-yl)-3-fluorobenzamide], for which the Binding % result was “+ (+ indicates binding activity greater than 0% and up to 50%)”.

For the compound `C=CC(=O)N1CC2(CCN(c3nc(N4CC5CCN(C)CC5C4)nc(-c4c(C)ccc5[nH]ncc45)c3C#N)C2)C1` (stereo not drawn) [Compound I-46, 4-(2-acryloyl-2,6-diazaspiro[3.4]octan-6-yl)-6-(5-methyl-1H-indazol-4-yl)-2-(5-methyloctahydro-2H-pyrrolo[3,4-c]pyridin-2-yl)pyrimidine-5-carbonitrile], the Binding % result is “+++ (+++ indicates binding activity greater than 85%)”. Consider `C=CC(=O)N1CC2(CCN(c3nc(N4CC5CCC(C4)N5C)nc(-c4c(C)ccc5[nH]ncc45)c3C#N)C2)C1` [Compound I-47, 4-(2-acryloyl-2,6-diazaspiro[3.4]octan-6-yl)-6-(5-methyl-1H-indazol-4-yl)-2-(8-methyl-3,8-diazabicyclo[3.2.1]oc-tan-3-yl)pyrimidine-5-carbonitrile], for which the Binding % entry is recorded as “+++ (+++ indicates binding activity greater than 85%)”. In the case of `C=CC(=O)N1CC2(CCN(c3nc(OCCc4ccccn4)nc(-c4c(C)ccc5[nH]ncc45)c3C#N)CC2)C1` [Compound I-75, 4-(2-acryloyl-2,7-diazaspiro[3.5]nonan-7-yl)-6-(5-methyl-1H-indazol-4-yl)-2-(2-(pyridin-2-yl)ethoxy)pyrimidine-5-carbonitrile], the Binding % entry is on record as “++ (++ indicates binding activity from 50 to 85%)”. The entry for `C=CC(=O)N1CC2(CCN(c3nc(N4CCOCC4)nc(-c4c(C)ccc5[nH]ncc45)c3C#N)C2)C1` [Compound I-76, 4-(2-acryloyl-2,6-diazaspiro[3.4]octan-6-yl)-6-(5-methyl-1H-indazol-4-yl)-2-morpholinopyrimidine-5-carbonitrile] is “++ (++ indicates binding activity from 50 to 85%)”.

Consider `C=CC(=O)N1CC2(CCN(c3nc(N4CCC5(CCN(C)C5)C4)nc(-c4c(C)ccc5[nH]ncc45)c3C#N)C2)C1` (stereo not drawn) [Compound I-77, 4-(2-acryloyl-2,6-diazaspiro[3.4]octan-6-yl)-6-(5-methyl-1H-indazol-4-yl)-2-(7-methyl-2,7-diazaspiro[4.4]nonan-2-yl)pyrimidine-5-carbonitrile], for which the Binding % result is on record as “+++ (+++ indicates binding activity greater than 85%)”. On to `C=CC(=O)N1CC2(CCN(c3nc(N4CCOCC4)nc(-c4c(C)ccc5[nH]nc(C)c45)c3C#N)C2)C1` [Compound I-78, 4-(2-acryloyl-2,6-diazaspiro[3.4]octan-6-yl)-6-(3,5-dimethyl-1H-indazol-4-yl)-2-morpholinopyrimidine-5-carbonitrile], for which the Binding % entry is given as “+++ (+++ indicates binding activity greater than 85%)”. The entry for `C=CC(=O)N1CC2(CCN(c3nc(N4CCOCC4)nc(-c4c(C)ccc5c4cnn5C)c3C#N)C2)C1` [Compound I-79, 4-(2-acryloyl-2,6-diazaspiro[3.4]octan-6-yl)-6-(1,5-dimethyl-1H-indazol-4-yl)-2-morpholinopyrimidine-5-carbonitrile] is “+ (+ indicates binding activity greater than 0% and up to 50%)”. Consider `C=CC(=O)N1CC2(CCN(c3nc(N4CCOCC4)nc(-c4cc(O)cc5ccccc45)c3C#N)C2)C1` [Compound I-80, 4-(2-acryloyl-2,6-diazaspiro[3.4]octan-6-yl)-6-(3-hydroxynaphthalen-1-yl)-2-morpholinopyrimidine-5-carbonitrile], for which the Binding % result is reported as “+++ (+++ indicates binding activity greater than 85%)”. In the case of `C=CC(=O)N1CC2(CCN(c3nc(OC[C@@H]4CN(C)CCO4)nc(-c4c(C)ccc5[nH]ncc45)c3C#N)C2)C1` [Compound I-81, 4-(2-acryloyl-2,6-diazaspiro[3.4]octan-6-yl)-6-(5-methyl-1H-indazol-4-yl)-2-(((S)-4-methylmorpholin-2-yl)methoxy)pyrimidine-5-carbonitrile], the Binding % result is recorded as “+++ (+++ indicates binding activity greater than 85%)”. Regarding `C=CC(=O)N1CC2(CCN(c3nc(OC[C@@H]4CCCN4C)nc(-c4c(C)ccc5cn[nH]c45)c3C#N)C2)C1` [Compound I-82, 4-(2-acryloyl-2,6-diazaspiro[3.4]octan-6-yl)-6-(6-methyl-1H-indazol-7-yl)-2-(((S)-1-methylpyrrolidin-2-yl)methoxy)pyrimidine-5-carbonitrile], the Binding % result is “+ (+ indicates binding activity greater than 0% and up to 50%)”.

In the case of `C/C=C/C(=O)N1CC2(CCN(c3nc(N4CCOCC4)nc(-c4c(C)ccc5[nH]ncc45)c3C#N)C2)C1` [Compound I-83, (E)-4-(2-(but-2-enoyl)-2,6-diazaspiro[3.4]octan-6-yl)-6-(5-methyl-1H-indazol-4-yl)-2-morpholinopyrimidine-5-carbonitrile], the Binding % entry was “+ (+ indicates binding activity greater than 0% and up to 50%)”.
